Results published in US20200017496A1 (priority 2017, published 2020).
Like-named read-outs stand apart in the source and are kept apart here.

How the values were obtained:
Assay in all cases: MIC of compounds alone and combined with antibacterials, broth microdilution (CLSI)
Type in all cases: cell-based
[1] = test system: Citrobacter koseri (CKR) isolates; settings: for MIC: Citrobacter koseri, ATB alone, read-out: MIC
Outline: (§1)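 Inoculum 5·10^5 CFU/mL (final), log phase, ca-MHB; 16-20 h, 35° C, ambient air. MIC = lowest conc. with no visible growth; ATB MIC read at each compound level.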

[2] = test system: Enterobacter cloacae (ECL) isolates; settings: for MIC: Enterobacter cloacae, ATB alone
Outline: as §1

[3] = test system: Klebsiella oxytoca (KOX) isolates
Outline: as §1

[4] = test system: Providencia rettgeri (PRE) isolates; settings: for MIC: Providencia rettgeri, ATB alone; for MIC ATB in combination: strain PRE UFR236
Outline: as §1

[5] = test system: Salmonella typhimurium (STY) isolates
Outline: as §1

[6] = test system: Serratia marcescens (SMA) isolates; settings: for MIC: Serratia marcescens
Outline: as §1

CC(C)(O/N=C(\C(=O)N[C@@H]1C(=O)N2C(C(=O)[O-])=C(C[n+]3ccccc3)CS[C@H]12)c1csc(N)n1)C(=O)O [CAZ, Ceftazidime]
2 µg/mL: MIC ATB in combination ([2]; ECL 190310, AF1 @ 8 μg/mL) | MIC ATB in combination ([2]; ECL 200138, AF1 @ 8 μg/mL) | MIC ATB in combination ([2]; ECL NEM146383, AF1 @ 4 μg/mL) | MIC ATB in combination ([2]; ECL NEM146383, AF1 @ 8 μg/mL) | MIC ATB in combination ([2]; ECL P99, AF1 @ 4 μg/mL) | MIC ATB in combination ([2]; ECL UFR14, AF1 @ 4 μg/mL) | MIC ATB in combination ([2]; ECL UFR70, AF1 @ 4 μg/mL) | MIC ([2]; strain ECL UFR12 (CTX-M-9, OXA-48)) | MIC ATB in combination ([2]; strain ECL UFR196, antibacterial combined with AF1 @ 4 μg/mL) | MIC ATB in combination ([3]; KOX UFR21, AF1 @ 4 μg/mL) | MIC ATB in combination ([6]; SMA UFR135, AF1 @ 4 μg/mL) | MIC ATB in combination ([6]; SMA UFR136, AF1 @ 4 μg/mL)
<=0.25 μg/mL: MIC ATB in combination ([1]; CKO ROU, AF1 @ 4 μg/mL) | MIC ATB in combination ([1]; CKO ROU, AF1 @ 8 μg/mL) | MIC ATB in combination ([1]; CKO UFR149, AF1 @ 8 μg/mL) | MIC ATB in combination ([2]; ECL 190408, AF1 @ 4 μg/mL) | MIC ATB in combination ([2]; ECL 260508, AF1 @ 8 μg/mL) | MIC ATB in combination ([2]; ECL P99, AF1 @ 8 μg/mL) | MIC ATB in combination ([2]; ECL UFR12, AF1 @ 8 μg/mL) | MIC ATB in combination ([2]; ECL UFR85, AF1 @ 8 μg/mL) | MIC ATB in combination ([2]; ECL UFR194, AF1 @ 8 μg/mL) | MIC ATB in combination ([2]; ECL UFR200, AF1 @ 8 μg/mL) | MIC ATB in combination ([3]; KOX UFR21, AF1 @ 8 μg/mL) | MIC ATB in combination ([3]; KOX UFR173, AF1 @ 8 μg/mL) | MIC ATB in combination ([3]; KOX UFR223, AF1 @ 4 μg/mL) | MIC ATB in combination ([3]; KOX UFR223, AF1 @ 8 μg/mL) | MIC ATB in combination ([3]; KOX UFR224, AF1 @ 4 μg/mL) | MIC ATB in combination ([3]; KOX UFR224, AF1 @ 8 μg/mL) | MIC ATB in combination [5] | MIC ATB in combination ([6]; SMA UFR30, AF1 @ 4 μg/mL) | MIC ATB in combination ([6]; SMA UFR30, AF1 @ 8 μg/mL) | MIC ATB in combination ([6]; SMA UFR134, AF1 @ 8 μg/mL) | MIC ATB in combination ([6]; SMA UFR137, AF1 @ 4 μg/mL) | MIC ATB in combination ([6]; SMA UFR137, AF1 @ 8 μg/mL) | MIC ATB in combination ([6]; SMA UFR138, AF1 @ 4 μg/mL) | MIC ATB in combination ([6]; SMA UFR138, AF1 @ 8 μg/mL) | MIC ATB in combination ([6]; SMA UFR139, AF1 @ 4 μg/mL) | MIC ATB in combination ([6]; SMA UFR139, AF1 @ 8 μg/mL) | MIC ATB in combination ([6]; SMA UFR141, AF1 @ 8 μg/mL) | MIC ATB in combination ([6]; strain SMA UFR238, antibacterial combined with AF1 @ 8 μg/mL)
≤ 0.25 µg/mL: MIC ([6]; strain SMA UFR138 (SME-1), ATB alone, read-out: MIC) | MIC ([6]; strain SMA UFR139 (SME-2), ATB alone, read-out: MIC)
> 256 µg/mL: MIC ([2]; strain ECL UFR198 (TEM-1, SHV-12, CTX-M-15, DHA-1, OXA-1, OXA-48)) | MIC ([2]; strain ECL 200138 (AmpC)) | MIC ([2]; strain ECL 260323 (AmpC)) | MIC ([2]; strain ECL UFR13 (TEM-1, SHV-12, CTX-M-9, OXA-48)) | MIC ([2]; strain ECL UFR14 (TEM-1, SHV-12, CTX-M-15, DHA-1, OXA-1, OXA-48)) | MIC ([2]; strain ECL UFR196 (TEM-1, CTX-M-15, OXA-1, OXA-48)) | MIC ([2]; strain ECL UFR200 (TEM-1, SHV-12, KPC-2)) | MIC ([4]; strain PRE UFR99 (OXA-1, OXA-181)) | MIC [6]
0.5 µg/mL: MIC ATB in combination ([1]; CKO UFR149, AF1 @ 4 μg/mL) | MIC ATB in combination ([2]; ECL 200322, AF1 @ 4 μg/mL) | MIC ATB in combination ([2]; ECL 200322, AF1 @ 8 μg/mL) | MIC ATB in combination ([2]; ECL UFR12, AF1 @ 4 μg/mL) | MIC ATB in combination ([2]; ECL UFR13, AF1 @ 4 μg/mL) | MIC ATB in combination ([2]; ECL UFR13, AF1 @ 8 μg/mL) | MIC ATB in combination ([2]; ECL UFR70, AF1 @ 8 μg/mL) | MIC ATB in combination ([2]; ECL UFR194, AF1 @ 4 μg/mL) | MIC ATB in combination ([2]; ECL UFR200, AF1 @ 4 μg/mL) | MIC ATB in combination ([2]; strain ECL UFR195, antibacterial combined with AF1 @ 8 μg/mL) | MIC ATB in combination ([2]; strain ECL UFR196, antibacterial combined with AF1 @ 8 μg/mL) | MIC ATB in combination ([2]; strain ECL UFR197, antibacterial combined with AF1 @ 8 μg/mL) | MIC ATB in combination ([4]; antibacterial combined with AF1 @ 8 μg/mL)
1 µg/mL: MIC ([1]; strain CKO ROU (TEM-1, SHV-12, CTX-M-15, OXA-1, OXA-48)) | MIC ATB in combination ([2]; ECL 260508, AF1 @ 4 μg/mL) | MIC ATB in combination ([2]; ECL UFR14, AF1 @ 8 μg/mL) | MIC ATB in combination ([2]; ECL UFR84, AF1 @ 8 μg/mL) | MIC ATB in combination ([2]; ECL UFR85, AF1 @ 4 μg/mL) | MIC ([2]; strain ECL UFR194 (OXA-48)) | MIC ATB in combination ([2]; strain ECL UFR195, antibacterial combined with AF1 @ 4 μg/mL) | MIC ATB in combination ([2]; strain ECL UFR197, antibacterial combined with AF1 @ 4 μg/mL) | MIC ATB in combination ([4]; antibacterial combined with AF1 @ 4 μg/mL) | MIC ATB in combination ([6]; SMA UFR135, AF1 @ 8 μg/mL) | MIC ATB in combination ([6]; SMA UFR136, AF1 @ 8 μg/mL) | MIC ([6]; strain SMA UFR141 (OXA-48), ATB alone, read-out: MIC)
32 µg/mL: MIC ATB in combination ([2]; ECL 260323, AF1 @ 8 μg/mL) | MIC ([4]; strain PRE UFR236 (TEM-1, OXA-48), read-out: MIC) | MIC ([6]; strain SMA UFR135 (TEM-1, KPC-2), ATB alone, read-out: MIC) | MIC ([6]; strain SMA UFR239 (ESAC), ATB alone, read-out: MIC)
16 µg/mL: MIC ATB in combination ([2]; ECL 260253, AF1 @ 4 μg/mL) | MIC ATB in combination ([2]; ECL UFR60, AF1 @ 4 μg/mL)
8 µg/mL: MIC ATB in combination ([2]; ECL 200138, AF1 @ 4 μg/mL) | MIC ATB in combination ([2]; ECL 260033, AF1 @ 4 μg/mL) | MIC ([3]; Klebsiella oxytoca, strain KOX UFR173 (OXY2-2), ATB alone, read-out: MIC) | MIC ATB in combination ([6]; SMA UFR239, AF1 @ 4 μg/mL) | MIC ([6]; strain SMA UFR30 (OXA-405), ATB alone, read-out: MIC) | MIC ([6]; strain SMA UFR134 (TEM-1, BES-1), ATB alone, read-out: MIC)
256 µg/mL: MIC ([2]; strain ECL 190310 (AmpC))
4 µg/mL: MIC ATB in combination ([1]; CKO UFR150, AF1 @ 4 μg/mL) | MIC ATB in combination ([1]; CKO UFR150, AF1 @ 8 μg/mL) | MIC ([1]; strain CKO UFR150 (TEM-1, OXA-48)) | MIC ATB in combination ([2]; ECL 2185D, AF1 @ 8 μg/mL) | MIC ATB in combination ([2]; ECL 190310, AF1 @ 4 μg/mL) | MIC ATB in combination ([2]; ECL 260253, AF1 @ 8 μg/mL) | MIC ATB in combination ([2]; ECL UFR60, AF1 @ 8 μg/mL) | MIC ATB in combination ([2]; ECL UFR84, AF1 @ 4 μg/mL) | MIC ATB in combination ([2]; strain ECL UFR198, antibacterial combined with AF1 @ 4 μg/mL) | MIC ATB in combination ([2]; strain ECL UFR198, antibacterial combined with AF1 @ 8 μg/mL) | MIC ATB in combination ([6]; SMA UFR239, AF1 @ 8 μg/mL)
512 µg/mL: MIC ([2]; strain ECL 260033 (AmpC))
<0.25 µg/mL: MIC ATB in combination ([2]; ECL 190408, AF1 @ 8 μg/mL) | MIC ATB in combination ([2]; ECL 260033, AF1 @ 8 μg/mL)
